The record followed here is patent publication US20220213055A1, “SUBSTITUTED (PIPERIDIN-1-YL)ARYL ANALOGUES FOR MODULATING AVIL ACTIVITY” (University of Virginia Patent Foundation, priority 2019, published 2022).

The structures appear in SMILES notation. Like-named read-outs stand apart in the source and are kept apart here.

Broadly, the IC50 is the concentration needed to halve the response being measured.

What all share (format): cell-based
Test [1] concerns the target T1, AVIL protein binding to actin (Homo sapiens, UniProt O75366).
T1 construct: expressed in transfected cells; host or cells: 293T cells
T1 sequence (O75366 1-819): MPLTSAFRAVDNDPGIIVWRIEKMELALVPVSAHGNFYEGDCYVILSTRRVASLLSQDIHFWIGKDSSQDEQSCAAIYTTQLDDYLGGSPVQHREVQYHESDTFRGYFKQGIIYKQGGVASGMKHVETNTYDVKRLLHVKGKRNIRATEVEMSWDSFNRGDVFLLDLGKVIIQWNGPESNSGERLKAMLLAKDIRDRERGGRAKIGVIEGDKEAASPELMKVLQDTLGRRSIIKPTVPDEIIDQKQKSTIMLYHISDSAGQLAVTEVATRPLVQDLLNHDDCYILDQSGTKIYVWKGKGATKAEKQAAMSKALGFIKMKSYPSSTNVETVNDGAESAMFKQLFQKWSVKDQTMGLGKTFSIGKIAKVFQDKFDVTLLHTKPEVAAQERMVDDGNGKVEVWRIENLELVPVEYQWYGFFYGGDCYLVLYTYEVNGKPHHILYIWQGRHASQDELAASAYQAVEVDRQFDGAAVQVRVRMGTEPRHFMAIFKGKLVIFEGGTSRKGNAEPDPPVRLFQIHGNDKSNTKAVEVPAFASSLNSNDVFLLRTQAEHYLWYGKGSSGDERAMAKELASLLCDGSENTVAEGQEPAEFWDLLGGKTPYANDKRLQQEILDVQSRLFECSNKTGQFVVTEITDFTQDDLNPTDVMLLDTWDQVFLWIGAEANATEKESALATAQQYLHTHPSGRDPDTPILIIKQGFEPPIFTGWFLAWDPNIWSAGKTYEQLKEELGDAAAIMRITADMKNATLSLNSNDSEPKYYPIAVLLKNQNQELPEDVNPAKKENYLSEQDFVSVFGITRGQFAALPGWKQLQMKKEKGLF
Description: Immunoprecipitation (MYC antibody) and Western blot (β-actin antibody) in 293T cells transfected with MYC tagged AVIL. The following applies: IC50 dose, 24 hrs, FIGS. 2A and 2B. Here is the method:
293T cells were first transfected with MYC tagged AVIL. After 24 hrs, the cells were treated with the IC50 dose of the five compounds for 24 hrs. Immunoprecipitation was performed with MYC antibody, and Western blot was performed with β-actin antibody.
293T cells were first transfected with MYC tagged AVIL as follows: transfect pQCXIH-myc-AVIL plasmid in 6 well plate of 293T for 48 hrs. 200 ul opti-medium+7 ul GeneCellin (Polyplus transfection Co.)+4 ug plasmids in each well. Transfected AVIL cells were treated with the IC50 dose of the test compounds for 24 hrs. Protein extract was then prepared on ice by adding 1 ml IP lysis buffer+protease inhibitor+cocktail+PMSF, and let stand on ice for 30 min. Cells were then scraped into EP tubes and sonicated continuously for 5 sec with power setting 3. Tubes were then centrifuged in 4° C. at 13000 rpm for 20 min, and the upper aqueous phase was then transferred to pre-chilled tubes. Protein concentration was then determined using Bio-Rad protein assay. Preclear cell extracts were treated with 50 ul ProteinG/Sepharose per my lysate for 1 hr. Then 500 ug precleared cell extracts were taken and adjusted to 500 ul with lysis buffer for 2 ug myc antibody or IgG control and incubated at 4° C. overnight. Then, 25 ul ProteinG/Sepharose beads were added and incubated at 4° C. overnight. Beads were then washed four times with 1 ml IP wash buffer for 3 min, and spun at 1000 rpm to pellet beads. All wash buffer was removed with pipette, and 20 ul 2×SDS loading buffer was added and then boiled at 95° C. for 10 min to denature. This was centrifuged at 12000 rpm for 30 sec., and the supernatant was then transferred to a fresh tube and load for SDS-PAGE.
Western blot was performed with R-actin antibody. To measure protein levels, cell lysates were resolved by denaturing gel electrophoresis, before electrotransfer to a Protran nitrocellulose membrane. The membrane was subjected to western blot analysis with antibodies against the proteins of interest. The following antibodies and dilutions were used: rabbit anti-AVIL (1:2000; Sigma SAB2100191).
(In general: A western blot detects proteins with antibodies after separation by electrophoresis.)

In test [2] the test system is LIN28B. Put plainly: LIN28B gene expression by qRT-PCR in U87 cells. The following applies: IC50 concentration, relative to GAPDH, FIG. 3. Here is the method:
U87 cells were treated at the IC50 concentration of the five test compounds. Cells were harvested. RNA was extracted using TRIzol reagent (Invitrogen) and quantified with Nanodrop (Thermo). cDNA was generated by AMV-RT kit (NEB), and a random hexamer primer. Real-time qPCR was carried out on the StepOne Plus system from Applied Biosystems using SYBR mix (Thermo). LIN28B expression was measured by qRT-PCR and is represented relative to GAPDH levels. […] The following primers were used for […] and GAPDH amplifications: […]
(In general: Real-time PCR tracks product formation cycle by cycle.)

The test system of test [3] is Glioblastoma cell line U87 cells. Description: MTT cell viability assay, glioblastoma cells. The following applies: for IC50: Homo sapiens, U-87 MG, 72 h, U87 glioblastoma cells, MTT after three days. Here is the method: (§1) Different concentration of compounds were added to the cells. Three days later, a MTT assay (Sigma) was performed to monitor cell viability.
(§2) In this example, samples of glioblastoma cells (U87) and astrocyte cells (non-cancer control) were exposed various disclosed compounds to determine the effectiveness of the compounds for inhibiting cell growth.
(In general: Tetrazolium dyes change colour on reduction, which living cells bring about.)

For test [4], the system named is Immortalized human astrocytes. Description: MTT cell viability assay, astrocytes (non-cancer control). The following applies: for IC50: immortalized human astrocytes, MTT after three days. Here is the method: as §1, §2

With `Cc1nc(N)nc(N2CCCC(CO)(CCCc3ccccc3)C2)c1C` (stereo not drawn) [PLH1252, (1-(2-Amino-5,6-dimethylpyrimidin-4-yl)-3-(3-phenylpropyl)piperidin-3-yl)methanol], in test [1], the “disruption of AVIL protein binding to actin” value (“disruption” below) is “disruption of AVIL protein binding to actin”. Besides, the “down-regulation of LIN28B gene expression” value (“down-regulation” below) in test [2] was “down-regulation of LIN28B gene expression”. In test [3] (FIG. 1 cell survival curves, U87), the “concentration at which most if not all of the U87 cells were wiped out” value is on record as “less than 1 μM”. For the same compound, the IC50 in test [3] is roughly 1000 nM; in test [3] (value in nM), roughly 600 nM; in test [4] (Homo sapiens, Astrocyte, 72 h) it was 45 µM; in test [4] (read-out: IC50 (astrocyte)), roughly 80 µM. The effect on astrocytes result in test [4] (FIG. 1 cell survival curves, astrocytes, varied doses) was “no significant effect”.
With `OCC1(CCCc2ccccc2)CCCN(c2ncnc3ccccc23)C1` (stereo not drawn) [PLH1295, (3-(3-Phenylpropyl)-1-(quinazolin-4-yl)piperidin-3-yl)methanol], the “disruption” value in test [1] is “disruption of AVIL protein binding to actin”. The “down-regulation” value in test [2] is reported as “down-regulation of LIN28B gene expression”. Besides, the IC50 in test [3] was less than 1000 nM; in test [3] (value in nM), 500 nM; in test [4] (Homo sapiens, Astrocyte, 72 h), 22 µM; in test [4] (read-out: IC50 (astrocyte)), 30 µM.
For `Cc1ncnc(N2CCCC(CO)(CCCc3ccccc3)C2)c1C` (stereo not drawn) [PLH2056, (1-(5,6-Dimethylpyrimidin-4-yl)-3-(3-phenylpropyl)piperidin-3-yl)methanol], in test [1], the “disruption” value is recorded as “disruption of AVIL protein binding to actin”. In addition, the “down-regulation” value in test [2] was “down-regulation of LIN28B gene expression”. The half-maximal inhibitory concentration (IC50) in test [3] was less than 2500 nM; in test [4] (Homo sapiens, Astrocyte, 72 h), roughly 80 µM.
